Tested on: MK801 induced hyperactivity in female NMRI mice
Assay: MK801 induced hyperactivity
Type: in vivo
Details: test compound subcutaneously 30 minutes before test start at 3, 10, 30 mg/kg, MK801 0.2 mg/kg ip
Method: Female NMRI mice (Taconic M&B, P.O. box 1079, DK-8680 Ry, Denmark) are kept in a ventilated closed rack (Scantainer, Scanbur Ltd., Denmark) at constant temperature (21° C.) and humidity (60-70%) with a 7:00 a.m light/7:00 p.m dark cycle. Food (altromin rat pellets) and water were available ad libitum.
Experiments were conducted during daytime in the light phase. The animals were habituated to the experimental room approximately 24 hours before start of the experiments.
MK801 induced hyperactivity was measured in automated activity frames (TSE Home Cage Activity Monitoring System, MoTil, TSE technical & scientific equipment GmbH, Germany) equipped with infrared photobeam emitters and sensors. MK801 was administered in a dose of 0.2 mg/kg ip immediately before test start.
Test compound was pretreated subcutaneously 30 minutes before test start at the following doses 3, 10, 30 mg/kg in a dose volume of 10 ml/kg.

O=C(CCCCN1CCC(c2ccccc2)CC1)Nc1ccc2ncccc2c1 [Compound A4, 5-(4-Phenyl-piperidin-1-yl)-pentanoic acid quinolin-6-ylamide]
Minimal Effective Dose (M.E.D) that significantly reduces MK801 induced hyperactivity: 10 mg/kg

COc1ccccc1N1CCN(CCCCC(=O)Nc2ccc3ncccc3c2)CC1 [Compound A3, 5-[4-(2-Methoxy-phenyl)-piperazin-1-yl]-pentanoic acid quinolin-6-ylamide]
Minimal Effective Dose (M.E.D) that significantly reduces MK801 induced hyperactivity: 10 mg/kg

Reference: US20110085978A1, “NOVEL QUINOLINYLAMIDE DERIVATIVES USEFUL AS MODULATORS OF DOPAMINE AND SEROTONIN RECEPTORS” (NeuroSearch A/S, priority 2008, published 2011)
